Measured values taken from the NIST ThermoML archive (doi:10.1016/j.tca.2012.04.030).

Tests used:
[1] = refractive index (Na D-line) (dimensionless); an = ratio of the nth substance listed; details: 101 kPa, Liquid, Standard Abbe refractometry
[2] = an = ratio of the nth substance listed; details: for surface tension liquid-gas: Ring tensiometer; for viscosity / mass density: 101 kPa, Liquid; for viscosity: Concentric cylinders viscometry; for mass density: Vibrating tube method

O=C(CO)[C@@H](O)[C@H](O)[C@H](O)CO [D-fructose] + C[N+](C)(C)CCO.[Cl-]
Details	mass density, [2] [kg/m3]	refractive index, [1]	surface tension liquid-gas, [2] [mN/m]	viscosity, [2] [mPa·s]
298.15 K, a2 = 1	1337	1.523	70.4	14347
298.15 K, a2 = 1.5	1303.6	1.521	73.6	12772
298.15 K, a2 = 2	1277.9	1.519	74	11733
298.15 K, a2 = 2.5	1259	1.522	75	17646
308.15 K, a2 = 1	1331.6	1.521	68	7722.9
308.15 K, a2 = 1.5	1298.2	1.519	71.7	7126.1
308.15 K, a2 = 2	1272.5	1.518	72	6137.1
308.15 K, a2 = 2.5	1253.7	1.52	73	8556.6
318.15 K, a2 = 1	1326.2	1.52	66	4050.5
318.15 K, a2 = 1.5	1292.7	1.517	69.5	3071
318.15 K, a2 = 2	1266.9	1.515	70	2457
318.15 K, a2 = 2.5	1248.5	1.517	71	4461.7
328.15 K, a2 = 1	1320.7	1.518	64.4	1415.9
328.15 K, a2 = 1.5	1287.3	1.515	67.3	1271.1
328.15 K, a2 = 2	1261.2	1.514	68	1261.7
328.15 K, a2 = 2.5	1243.3	1.516	69	1267.5
338.15 K, a2 = 1	1315.2	1.515	62.6	806.5
338.15 K, a2 = 1.5	1281.8	1.512	65.6	698.4
338.15 K, a2 = 2	1255.5	1.511	66	570.7
338.15 K, a2 = 2.5	1237.9	1.514	67	615.4
348.15 K, a2 = 1	1309.3	1.513	61	459.7
348.15 K, a2 = 1.5	1275.9	1.511	63	353.1
348.15 K, a2 = 2	1249.7	1.509	64	285.3
348.15 K, a2 = 2.5	1232.4	1.512	65	325.5
358.15 K, a2 = 1	1303.1	1.512	59	280.6
358.15 K, a2 = 1.5	1269.7	1.509	61.3	236.1
358.15 K, a2 = 2	1241.9	1.507	62	129.3
358.15 K, a2 = 2.5	1226.9	1.51	63	182.6
